Laboratory results reported in paper PMC6930638, “The Masked Polar Group Incorporation (MPGI) Strategy in Drug Design: Effects of Nitrogen Substitutions on Combretastatin and Isocombretastatin Tubulin Inhibitors” (Molecules, 2019).

What was measured:
[1] = system: HeLa cervix epithelioid carcinoma; assay: MTT cell antiproliferative assay, HeLa; type: cell-based; conditions: Homo sapiens, 72 h
[2] = system: HT-29 colon adenocarcinoma; assay: MTT cell antiproliferative assay, HT-29 (without or with verapamil); type: cell-based, human; conditions: Homo sapiens, HT-29; MTT, 72 h
[3] = system: MCF-7 breast adenocarcinoma; assay: MTT cell antiproliferative assay, MCF-7; type: cell-based; conditions: Homo sapiens, MCF7, 72 h

IC50 [1] [nM]	IC50 [2] [nM]	IC50 [3] [nM]	Compound
180	460	320	COc1cc(C(=O)c2cccc(N(C)C)c2)cc(OC)c1OC [Compound 1f, (3-(Dimethylamino)phenyl)(3,4,5-trimethoxyphenyl)methanone]
150	277	81	C=C(c1ccc(N(C)C)nc1)c1cc(OC)c(OC)c(OC)c1 [Compound 3b, N,N-Dimethyl-5-(1-(3,4,5-trimethoxyphenyl)vinyl)pyridin-2-amine]
57	78	63	COc1cc(C=Cc2ccc(N(C)C)nc2)cc(OC)c1OC [Compound 8b, N,N-dimethyl-5-(3,4,5-trimethoxystyryl)pyridin-2-amine]
18	71	17	COc1cc(C(=O)c2ccnc(N3CCCC3)c2)cc(OC)c1OC [Compound 1h, (2-(Pyrrolidin-1-yl)pyridin-4-yl)(3,4,5-trimethoxyphenyl)methanone]
